The source of these data is US9821018B2, “Composition comprising Raphanus, Theobroma and Passiflora for treating opioid and alcohol abuse” (priority 2012, dated 2017).

Structures can show the parent of a compound that is named as a salt.

Assay [1] concerns brain serotonin. Put plainly: brain serotonin concentration by ELISA. It counts as in vivo, Male Wistar rats. As to conditions: i.p., 30 min after injection; fluoxetine 10 mg/kg, desipramine 50 mg/kg, Raphanus extract 2-256 mg/kg; vs saline. The protocol:
(§1) Male Wistar rats (250-300 g, Amman-Jordan) were used throughout the study (8 rats for each experiment). Animals were housed in groups of 4/cage in a 12/12 h light-cycle (lights on at 07.00 a.m.), with ad-lib food and water available. The animals were randomly allocated to different groups of the experiment. All experiments were conducted in accordance with standard ethical guidelines and approved by the local ethical Committee University of Medical Committee on the Use and Care of Animals, 81/021, Jul. 10, 2011 (Petra University, Amman, Jordan)).
(§2) Fluoxetine hydrochloride [N-methyl-3-[(4-trifluoromethyl) phenoxy]-3-phenylpropylamine hydrochloride] and desipramine hydrochloride [10-11-dihydro-N-methyl-5H-dibenz (Z) [b, f] azepine-5-propanamine hydrochloride] (TOCRIS Bioscience, UK) were dissolved in sterile saline and administered intraperitoneally at a concentration of 1 ml/kg; the extract was prepared immediately before use. The control groups were administered saline.
(§3) The Raphanus sativus extract used was prepared in Jordan. To prepare the extract, 100 g of dried and milled […] was extracted with 1000 ml distilled water by maceration. […] The extract was dissolved in normal saline and immediately administered to the animals. […]
In general terms: ELISA stands for enzyme-linked immunosorbent assay.

Assay [2] deals with brain dopamine. Put plainly: brain dopamine concentration by ELISA. The class given is in vivo, Male Wistar rats. Particulars: i.p., 30 min after injection; fluoxetine 10 mg/kg, desipramine 50 mg/kg, Raphanus extract up to 256 mg/kg (most potent). The method, then: as §1, §2, §3
For assay [3], the system named is PTZ-induced convulsions. As to conditions: mice, i.p.; safranal 0.15 and 0.35 ml/kg body weight, crocin 22 mg/kg; cited from earlier work.
The test system of assay [4] is morphine-induced place preference. Particulars: i.p.; extract 10, 50 and 100 mg/kg, safranal 1, 5 and 10 mg/kg; cited from earlier work.

In the case of `CNCCCN1c2ccccc2CCc2ccccc21` [desipramine, 10-11-dihydro-N-methyl-5H-dibenz (Z) [b, f] azepine-5-propanamine hydrochloride], the brain serotonin levels entry in assay [1] was “neither desipramine nor Raphanus extract can increase brain serotonin levels”. Further, in assay [2], the “dopamine concentration in the brain” value is “can increase dopamine concentration in the brain”.

Consider `CC1=C(C=O)C(C)(C)CC=C1` [Safranal, safranal], for which the anticonvulsant activity result in assay [3] was “reduced the seizure duration, delayed the onset of tonic convulsions, and protected mice from death”. Further, in assay [4], the “acquisition and expression of morphine CPP” value was “The same results were obtained”.

Turning to `CNCCC(Oc1ccc(C(F)(F)F)cc1)c1ccccc1` (stereo not shown) [fluoxetine, N-methyl-3-[(4-trifluoromethyl)phenoxy]-3-phenylpropylamine hydrochloride], the brain serotonin levels result in assay [1] is recorded as “can increase brain serotonin levels significantly”. The “dopamine concentration in the brain” value in assay [2] was “can increase dopamine concentration in the brain”.

For the compound `CC(/C=C/C=C(\C)C(=O)O[C@@H]1O[C@H](CO[C@@H]2O[C@H](CO)[C@@H](O)[C@H](O)[C@H]2O)[C@@H](O)[C@H](O)[C@H]1O)=C\C=C\C=C(C)\C=C\C=C(/C)C(=O)O[C@@H]1O[C@H](CO[C@@H]2O[C@H](CO)[C@@H](O)[C@H](O)[C@H]2O)[C@@H](O)[C@H](O)[C@H]1O` [Crocin, crocin], the anticonvulsant activity result in assay [3] is “did not show anticonvulsant activity”.
